Several values for one entry are separate records, joined by “and”; a condition that tells them apart may be missing. Identical values can stand only once.
System: 922993-354-T-J3-PDC complex spheroids, viability, % test/control
Assay: Anticancer human tumor 922993-354-T-J3-PDC patient-derived endometrial carcinoma cell line growth inhibition [CLK]
Conditions: for viability, T/C: stronger effect = lower value
From the text: A high-throughput screen of multi-cell type tumor spheroids was designed to identify active combinations of […] and targeted small molecules. Complex spheroids include a stromal component modeled by human endothelial cells (HUVEC) and fibroblasts modeled by human mesenchymal stem cells (MSCs). The concentration ranges selected for each drug and investigational agent were based upon clinically achievable concentrations if the clinical Cmax of the agent was known.
Compounds. The drugs and investigational agents: cirtuvivint (SM08502; NSC835563), CC-671 (NSC850746), vemurafenib (NSC761431), tapotoclax (NSC804041), sotorasib (NSC818433), adagrasib (NSC831453), MRTX-1133 (NSC836407), BAY2416964 (NSC825713), copanlisib (NSC816437), inavolisib (NSC800729), abemaciclib (NSC768073), osimertinib (NSC779217), entinostat (NSC756642), eltanexor (KPT-8602, NSC794443), venetoclax (NSC766270), ceralasertib (NSC777638), bortezomib (NSC756655), olaparib (NSC753686), talazoparib (NSC767125), alisertib (NSC759677), peposertib (NSC802822), gemcitabine (NSC613327), 5-fluorouracil (NSC19893), SN-38 (NSC673596), oxaliplatin (NSC266046), paclitaxel (NSC125973), and doxorubicin (NSC123127), were obtained from the National Cancer Institute (NCI) Developmental Therapeutics Program Chemical Repository. The FDA-approved anticancer drug set is available from the Developmental Therapeutics Program at https://dtp.cancer.gov/organization/dscb/obtaining/available plates.htm. […] The stock solutions were prepared in dimethyl sulfoxide (DMSO, Sigma-Aldrich, St. Louis, MO, cat. D2650), except for the platinum complexes which were prepared in saline (Quality Biological, Gaithersburg, MD, cat. 114-055-101), at 800-fold the tested concentration and stored at -70 degrees C prior to their use. All drugs and investigational agents were tested over a range starting from a high concentration at or near the clinical Cmax and decreasing in half-log increments. If the clinical Cmax for an agent had not been determined, the highest concentration tested was 10 microM.
Cell Culture. All cells were maintained in an incubator at 37 degrees C and 5% CO2 with 95% humidity. The PDC lines were cultured according to standard operating procedures established by the NCI PDMR. Briefly, all PDCs were thawed and cultured in Matrigel-coated flasks prepared with a working solution of 1X Ham's F-12 nutrient mix, without supplementation (Invitrogen, Waltham, MA, cat. 11765054), 100 U/mL penicillin-streptomycin (Invitrogen, cat. 15140122), and 2.5% Matrigel (Corning Inc., Corning, NY, cat. 354248) for the first three passages. The 947758-054-R-J2-PDC line was cultured in 6B/Colon 1A media, which includes advanced DMEM/F-12 (Thermo Fisher Scientific, cat. 12634028), 10 mM HEPES (Thermo Fisher Scientific, cat. 15630080), 1X GlutaMAX supplement (Thermo Fisher Scientific, cat. 35050061), 0.1 mg/mL primocin (InvivoGen, cat. ant-pm-2), 10% defined fetal bovine serum, heat inactivated (HyClone Laboratories Inc., cat. SH30070.03HI), 1.25 mM N-Acetyl-L-cysteine (Sigma-Aldrich, cat. A9165), 10 mM nicotinamide (Sigma-Aldrich, cat. N0636), 1X B-27 supplement (Thermo Fisher Scientific, cat. 17504044), 1X N-2 supplement (Thermo Fisher Scientific, cat. 17502048), and 10 microM Y-27632 dihydrochloride (Tocris Bioscience, cat. 1254). The 876862-298-R-J1-PDC was cultured in 6E media, which includes all 6B/Colon 1A media components plus 50% L-WRN conditioned media (ATCC, cat. CRL-3276), 50 ng/mL recombinant human EGF recombinant protein (hEGF; Thermo Fisher Scientific, cat. PHG0311), 10 ng/mL recombinant human fibroblast growth factor 10 (hGFG-10; PeproTech, cat. 100-26), 1 ng/mL recombinant human fibroblast growth factor 2 (hFGF-2; PeproTech, cat. 100-18B), and 1 µM prostaglandin E2 (PGE2; Tocris, cat. 2296). The 227483-062-R1-J1-PDC line was cultured in Panc media, containing all 6E components except hFGF-2, with the addition of 500 nM SB-431542 (Selleckchem, cat. S1067) and 10 nM gastrin (Tocris, cat. 3006). […]
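Also: spheroids exposed to the agents for 7 days before readout.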

CN1CCN(c2cc(C(=O)Nc3cc4cc(-c5cnn(C)c5)ccc4cn3)ccn2)CC1 was tested. Which viability, T/C (compound 0.1 µM) did it give?
The viability, T/C was 97.6% [middle of 12 runs].

What about the viability, T/C (compound 1 µM) of the same molecule?
Its viability, T/C is 1.97% [middle of 12 runs].

What about the viability, T/C (compound 3.16 µM) of the same molecule?
The viability, T/C was 0.81% [middle of 12 runs].

And the viability, T/C (compound 10 µM)?
The viability, T/C was 0.24% [middle of 12 runs].

What about the IC50 (compound alone, run of 09/18/2023) of the same molecule?
Its IC50 is 266 nM [middle of 12 runs].

What does the source list for COc1ccc([C@@H](O)c2cc(-c3ncnc4cc(N5CCOCC5)ccc34)c(F)cc2Cl)nn1?
viability, T/C (compound 0.0316 µM): 87.2% and 87.1%; viability, T/C (compound 0.1 µM): 104% and 94.9%; viability, T/C (compound 0.316 µM): 87.7% and 98.9%; viability, T/C (compound 1 µM): 113% and 98.2%; viability, T/C (compound 3.16 µM): 85.8% and 117%; viability, T/C (compound 10 µM): 82.8% and 89.9%; IC50 (curve of compound): > 10 µM

Which results are given for COc1cccc2c1C(=O)c1c(O)c3c(c(O)c1C2=O)CC(O)(C(=O)CO)CC3OC1CC(N)C(O)C(C)O1 (stereo unspecified)?
viability, T/C (compound 0.0316 µM): 92.5% and 100%; viability, T/C (compound 0.1 µM): 97.2% and 86%; viability, T/C (compound 0.316 µM): 91.5% and 102%; viability, T/C (compound 1 µM): 63.7% and 75.1%; viability, T/C (compound 3.16 µM): 38.8% and 41.3%; viability, T/C (compound 10 µM): 13.7% and 21.8%; IC50 (curve of compound): 1.91 µM and 2.33 µM

Which IC50 (curve of first compound, second compound 0.0316 µM) does the source give for C=CC(=O)N1CCN(c2nc(=O)n(-c3c(C)ccnc3C(C)C)c3nc(-c4c(O)cccc4F)c(F)cc23)C(C)C1 (stereo unspecified) + CN1CCN(c2cc(C(=O)Nc3cc4cc(-c5cnn(C)c5)ccc4cn3)ccn2)CC1 here?
The IC50 was over 10 µM.

What about the IC50 (curve of first compound, second compound 0.1 µM) of the same molecule?
Its IC50 is over 10 µM.

And the IC50 (curve of first compound, second compound 0.316 µM)?
Its IC50 is 0.0433 µM.

And the IC50 (curve of first compound, second compound 1 µM)?
Its IC50 is under 0.0316 µM.

And the IC50 (curve of first compound, second compound 3.16 µM)?
Its IC50 is under 0.0316 µM.

And the IC50 (curve of first compound, second compound 10 µM)?
Its IC50 is under 0.0316 µM.

What about the viability, T/C (second compound 0.0316 µM, first compound 0.0316 µM) of the same molecule?
The viability, T/C was 121%.

And the viability, T/C (second compound 0.0316 µM, first compound 0.1 µM)?
The viability, T/C was 123%.

What about the viability, T/C (second compound 0.0316 µM, first compound 0.316 µM) of the same molecule?
Its viability, T/C is 132%.

What about the viability, T/C (second compound 0.0316 µM, first compound 1 µM) of the same molecule?
The viability, T/C was 116%.

What about the viability, T/C (second compound 0.0316 µM, first compound 3.16 µM) of the same molecule?
The viability, T/C was 112%.

What about the viability, T/C (second compound 0.0316 µM, first compound 10 µM) of the same molecule?
The viability, T/C was 112%.

And the viability, T/C (second compound 0.1 µM, first compound 0.0316 µM)?
The viability, T/C was 105%.

And the viability, T/C (second compound 0.1 µM, first compound 0.1 µM)?
Its viability, T/C is 98.6%.

What about the viability, T/C (second compound 0.1 µM, first compound 0.316 µM) of the same molecule?
Its viability, T/C is 114%.

What about the viability, T/C (second compound 0.1 µM, first compound 1 µM) of the same molecule?
The viability, T/C was 91.6%.

And the viability, T/C (second compound 0.1 µM, first compound 3.16 µM)?
The viability, T/C was 106%.

And the viability, T/C (second compound 0.1 µM, first compound 10 µM)?
Its viability, T/C is 90.1%.

And the viability, T/C (second compound 0.316 µM, first compound 0.0316 µM)?
Its viability, T/C is 50.9%.

And the viability, T/C (second compound 0.316 µM, first compound 0.1 µM)?
The viability, T/C was 48.5%.

What about the viability, T/C (second compound 0.316 µM, first compound 0.316 µM) of the same molecule?
The viability, T/C was 43.5%.

What about the viability, T/C (second compound 0.316 µM, first compound 1 µM) of the same molecule?
The viability, T/C was 37.8%.

And the viability, T/C (second compound 0.316 µM, first compound 3.16 µM)?
The viability, T/C was 41.4%.

What about the viability, T/C (second compound 0.316 µM, first compound 10 µM) of the same molecule?
The viability, T/C was 47.4%.

And the viability, T/C (second compound 1 µM, first compound 0.0316 µM)?
Its viability, T/C is 0.19%.

And the viability, T/C (second compound 1 µM, first compound 0.1 µM)?
The viability, T/C was 0.68%.

And the viability, T/C (second compound 1 µM, first compound 0.316 µM)?
The viability, T/C was 0.16%.

And the viability, T/C (second compound 1 µM, first compound 1 µM)?
Its viability, T/C is 0.93%.

What about the viability, T/C (second compound 1 µM, first compound 3.16 µM) of the same molecule?
The viability, T/C was 0.13%.

What about the viability, T/C (second compound 1 µM, first compound 10 µM) of the same molecule?
Its viability, T/C is 0.12%.

And the viability, T/C (second compound 3.16 µM, first compound 0.0316 µM)?
The viability, T/C was 0.13%.

And the viability, T/C (second compound 3.16 µM, first compound 0.1 µM)?
Its viability, T/C is 0.17%.

What about the viability, T/C (second compound 3.16 µM, first compound 0.316 µM) of the same molecule?
The viability, T/C was 1.53%.

And the viability, T/C (second compound 3.16 µM, first compound 1 µM)?
Its viability, T/C is 0.1%.

What about the viability, T/C (second compound 3.16 µM, first compound 3.16 µM) of the same molecule?
Its viability, T/C is 0.14%.

And the viability, T/C (second compound 3.16 µM, first compound 10 µM)?
Its viability, T/C is 1.14%.

What about the viability, T/C (second compound 10 µM, first compound 0.0316 µM) of the same molecule?
Its viability, T/C is 0.16%.

And the viability, T/C (second compound 10 µM, first compound 0.1 µM)?
Its viability, T/C is 0.18%.

And the viability, T/C (second compound 10 µM, first compound 0.316 µM)?
Its viability, T/C is 0.17%.

And the viability, T/C (second compound 10 µM, first compound 1 µM)?
Its viability, T/C is 0.15%.

What about the viability, T/C (second compound 10 µM, first compound 3.16 µM) of the same molecule?
The viability, T/C was 0.79%.

And the viability, T/C (second compound 10 µM, first compound 10 µM)?
Its viability, T/C is 0.2%.
